From patent publication US8802679B2, “Glycine compound” (Astellas Pharma Inc., priority 2009, dated 2014)
Counter-ions that a name gives are not always drawn.

Legend:
[1] = tested on: VAP-1 enzyme activity in plasma; assay: Plasma VAP-1 enzyme activity after oral administration to rats (radio-enzyme assay); assay type: in vivo, Wistar male rats; conditions: rat, oral 1 mg/kg; for Inhibition Ratio (%) of plasma VAP-1 activity, 1 h: 1 h after administration; for Inhibition Ratio (%) of plasma VAP-1 activity, 3 h: 3 h after administration; for Inhibition Ratio (%) of plasma VAP-1 activity, 6 h: 6 h after administration; for Inhibition Ratio (%) of plasma VAP-1 activity, 12 h: 12 h after administration
Description: Eight-week to twelve-week Wistar male rats were fasted for 20 hours, and orally administered with a test drug (1 mg/1 kg). Heparin blood collection from the tail vein was performed immediately before the administration, and at 1 h, 3 h, 6 h, and 12 h after the administration. The resulting blood was subjected to centrifugation at 14000 rpm for 5 minutes to separate plasma, and the VAP-1 enzyme activity in the resulting plasma was measured by a radio-enzyme assay method.
For the radio-enzyme assay method, ^14C-benzylamine which is a synthetic substrate (10 μM) was reacted with the resulting plasma at 37° C., and the resulting metabolite was extracted with a mixture of toluene/ethyl acetate. The radioactivity was measured and taken as a VAP-1 enzyme activity in the plasma. The effect of the test drug was calculated from the ratio (%) of the VAP-1 activity after the administration of the test drug relative to the VAP-1 activity in the plasma immediately before the administration (100%).

[2] = molecular target: rat VAP-1 enzyme (SSAO) (Rattus norvegicus (Rat), UniProt O08590); assay: Inhibitory effect on rat VAP-1 enzyme (SSAO) activity, radiochemistry-enzymatic assay with 14C-benzylamine; assay type: biochemical; conditions: enzyme from CHO cells expressing rat VAP-1; 14C-benzylamine 1×10^−5 mol/L
Description: Inhibitory Effect of Compound on Rat VAP-1 Enzyme (SSAO) Activity
(§1) A rat VAP-enzyme 1 (SSAO) activity was measured by a radiochemistry-enzymatic assay using ^14C-benzylamine as an artificial substrate. An enzyme suspension prepared from CHO (Chinese Hamster Ovary) cells stably expressing a rat VAP-enzyme 1 (SSAO) was preincubated with the compound of the present invention in a 96-well microplate at room temperature for 30 minutes. Subsequently, the enzyme suspension was incubated with ^14C-benzylamine (a final concentration of 1×10^−5 mol/L) to a final volume of […] at 37° C. for 1 hour. The enzymatic reaction was stopped by the addition of 2 mol/L (50 μL) of citric acid. The oxidation products were extracted directly in a 200-μL toluene scintillator, and the radioactivity was measured with a scintillation spectrometer.
(§2) In addition, the inhibitory activity is expressed in IC50 (nmol/L).

[3] = molecular target: human VAP-1 enzyme (SSAO) (Homo sapiens (Human), UniProt Q16853); assay: Inhibitory effect on human VAP-1 enzyme (SSAO) activity, radiochemistry-enzymatic assay with 14C-benzylamine; assay type: biochemical; conditions: enzyme from CHO cells expressing human VAP-1; 14C-benzylamine 1×10^−5 mol/L
Description: Inhibitory Effect of Compound on Human VAP-1 Enzyme (SSAO) Activity
as §1, with “human VAP-1 enzyme” for “rat VAP-enzyme 1”
as §2

Sequence of rat VAP-1 enzyme (SSAO) (O08590 whole entry): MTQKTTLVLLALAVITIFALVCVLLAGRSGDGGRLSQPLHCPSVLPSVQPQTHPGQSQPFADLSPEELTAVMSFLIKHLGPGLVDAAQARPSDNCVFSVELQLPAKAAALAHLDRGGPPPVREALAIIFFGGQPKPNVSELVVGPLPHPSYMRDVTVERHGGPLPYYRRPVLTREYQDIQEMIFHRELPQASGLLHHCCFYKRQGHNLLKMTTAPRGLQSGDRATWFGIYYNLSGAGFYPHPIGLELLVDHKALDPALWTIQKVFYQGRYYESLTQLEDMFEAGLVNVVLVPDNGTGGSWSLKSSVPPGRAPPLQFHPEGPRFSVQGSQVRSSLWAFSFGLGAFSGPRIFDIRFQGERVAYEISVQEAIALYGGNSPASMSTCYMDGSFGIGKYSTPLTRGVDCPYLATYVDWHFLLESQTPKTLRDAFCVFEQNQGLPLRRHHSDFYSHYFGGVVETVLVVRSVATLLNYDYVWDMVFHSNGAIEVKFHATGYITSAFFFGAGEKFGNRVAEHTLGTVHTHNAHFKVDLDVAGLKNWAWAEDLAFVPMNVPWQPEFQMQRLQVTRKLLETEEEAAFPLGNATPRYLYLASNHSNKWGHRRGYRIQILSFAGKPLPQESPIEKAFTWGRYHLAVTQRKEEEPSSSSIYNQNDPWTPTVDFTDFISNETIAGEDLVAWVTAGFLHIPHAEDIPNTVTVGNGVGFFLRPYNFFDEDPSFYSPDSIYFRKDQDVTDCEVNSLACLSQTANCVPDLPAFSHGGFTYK
Sequence of human VAP-1 enzyme (SSAO) (Q16853 whole entry): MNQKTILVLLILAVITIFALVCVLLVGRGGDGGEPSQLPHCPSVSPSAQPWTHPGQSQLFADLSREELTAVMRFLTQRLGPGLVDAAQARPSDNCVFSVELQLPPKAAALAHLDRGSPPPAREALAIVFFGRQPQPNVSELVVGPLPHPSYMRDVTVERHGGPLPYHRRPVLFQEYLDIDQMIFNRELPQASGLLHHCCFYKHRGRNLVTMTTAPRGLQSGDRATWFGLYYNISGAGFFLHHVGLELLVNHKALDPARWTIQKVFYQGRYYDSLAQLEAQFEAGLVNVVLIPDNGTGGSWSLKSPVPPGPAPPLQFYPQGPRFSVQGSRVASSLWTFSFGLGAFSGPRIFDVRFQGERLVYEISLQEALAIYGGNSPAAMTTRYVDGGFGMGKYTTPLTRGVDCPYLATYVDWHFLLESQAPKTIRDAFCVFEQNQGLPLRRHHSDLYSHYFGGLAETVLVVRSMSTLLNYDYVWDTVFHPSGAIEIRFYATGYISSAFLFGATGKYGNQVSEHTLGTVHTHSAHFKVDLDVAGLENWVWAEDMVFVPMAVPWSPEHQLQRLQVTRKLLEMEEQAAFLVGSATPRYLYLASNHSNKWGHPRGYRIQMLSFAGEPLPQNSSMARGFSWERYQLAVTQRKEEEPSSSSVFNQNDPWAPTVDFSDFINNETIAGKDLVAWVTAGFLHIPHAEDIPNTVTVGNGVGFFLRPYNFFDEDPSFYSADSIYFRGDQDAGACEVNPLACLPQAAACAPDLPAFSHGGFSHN

SMILES | IC50 [2] | IC50 [3] | Inhibition Ratio (%) of plasma VAP-1 activity, 1 h [1] | Inhibition Ratio (%) of plasma VAP-1 activity, 3 h [1] | Inhibition Ratio (%) of plasma VAP-1 activity, 6 h [1] | Inhibition Ratio (%) of plasma VAP-1 activity, 12 h [1]
CN(Cc1cccc(-c2cnc(N3CCOC(CO)C3)nc2)c1)C(=O)CN (stereo not shown) [Ex 79] | 34 nM | 66 nM | 24% | 21% | 15% | 14%
C[C@@H]1CN(c2ncc(-c3cccc(CN(C)C(=O)CN)c3)cn2)C[C@H](C)O1 [Ex 78] | – | – | 31% | 18% | 3% | −4%
CN(Cc1cccc(-c2cnc(N3CCN(c4ncccc4Cl)CC3)nc2)c1)C(=O)CN [Ex 147] | 44 nM | 72 nM | 70% | 79% | 75% | 66%
CN(Cc1cccc(-c2cnc(N3CCS(=O)(=O)CC3)nc2)c1)C(=O)CN [Ex 216] | 40 nM | 90 nM | 25% | −7% | 15% | 25%
Cc1cc(/C=C/C(=O)O)cnc1N1CCN(c2ncc(-c3cccc(CN(C)C(=O)CN)c3)cn2)CC1 [Example 19, (2E)-3-(6-{-4-[5-(3-{[glycyl(methyl)amino]methyl}phenyl)pyrimidin-2-yl]piperazin-1-yl}-5-methylpyridin-3-yl)acrylic acid dihydrochloride] | 6.9 nM | 6.9 nM | 84% | 79% | 75% | 63%
CN(Cc1cccc(-c2cnc(N3CCOCC3)nc2)c1)C(=O)CN [Example 69, N-methyl-N-[3-(2-morpholin-4-ylpyrimidin-5-yl)benzyl]glycinamide L-tartrate] | 9.8 nM | 32 nM | 72% | 56% | 39% | 24%
C[C@@H]1CN(c2ccc(-c3cccc(CN(C)C(=O)CN)c3)cn2)C[C@H](C)O1 [Ex 80] | 39 nM | 81 nM | 48% | 43% | 26% | 21%
Cc1cccnc1N1CCN(c2ncc(-c3cccc(CN(C)C(=O)CN)c3)cn2)CC1 [Example 3, N-methyl-N-(3-{2-[4-(3-methylpyridin-2-yl)piperazin-1-yl]pyrimidin-5-yl}benzyl)glycinamide L-tartrate] | 22 nM | 32 nM | 65% | 77% | 71% | 47%
Cc1cc(CCC(=O)O)cnc1N1CCN(c2ncc(-c3cccc(CN(C)C(=O)CN)c3)cn2)CC1 [Ex 66] | – | – | 78% | 81% | 74% | 67%

Second part, led by results:

IC50 [2] | IC50 [3] | SMILES | Inhibition Ratio (%) of plasma VAP-1 activity, 1 h [1] | Inhibition Ratio (%) of plasma VAP-1 activity, 3 h [1] | Inhibition Ratio (%) of plasma VAP-1 activity, 6 h [1] | Inhibition Ratio (%) of plasma VAP-1 activity, 12 h [1]
12 nM | 20 nM | Cc1nc2c(s1)CN(c1ncc(-c3cccc(CN(C)C(=O)CN)c3)cn1)CC2 [Ex 102] | 65% | 62% | 71% | 40%
5.8 nM | 11 nM | CN(Cc1cccc(-c2cnc(N3Cc4cccnc4C3)nc2)c1)C(=O)CN [Ex 95] | 70% | 67% | 71% | 21%
10 nM | 18 nM | CN(Cc1cccc(-c2cnc(N3CCN(c4ncc(C(=O)O)cc4Cl)CC3)nc2)c1)C(=O)CN [Example 32] | 68% | 70% | 58% | 45%
12 nM | 18 nM | Cc1ncccc1N1CCN(c2ncc(-c3cccc(CN(C)C(=O)CN)c3)cn2)CC1 [Ex 91] | 68% | 68% | 68% | 44%
7.4 nM | 49 nM | CN(Cc1cccc(-c2cnc(N3CC[C@H](F)C3)nc2)c1)C(=O)CN [Example 16] | 83% | 83% | 53% | 42%
21 nM | 17 nM | CN(Cc1cccc(-c2cnc(N3CCN(c4ccc(C#N)nc4)CC3)nc2)c1)C(=O)CN [Example 261, N-(3-{2-[4-(6-cyanopyridin-3-yl)piperazin-1-yl]pyrimidin-5-yl}benzyl)-N-methylglycinamide L-tartrate] | 36% | 44% | 45% | 32%
15 nM | 140 nM | CN(Cc1cccc(-c2cnc(N3CCC(O)CC3)nc2)c1)C(=O)CN [Ex 84] | 16% | 20% | 17% | –
19 nM | 23 nM | CN(Cc1cccc(-c2cnc(N3CCC(c4cccnc4)CC3)nc2)c1)C(=O)CN [Ex 190] | 42% | 48% | 41% | 11%
3.6 nM | 49 nM | CN(Cc1cccc(-c2cnc(N3CCCC3)nc2)c1)C(=O)CN [Ex 75] | 78% | 58% | 38% | 24%
14 nM | 7 nM | CN(Cc1cccc(-c2cnc(N3CC=C(c4cccnc4)CC3)nc2)c1)C(=O)CN [Ex 191] | 35% | 43% | 48% | 20%
15 nM | 25 nM | CN(Cc1cccc(-c2cnc(N3CCN(c4ccc(C(=O)O)cc4Cl)CC3)nc2)c1)C(=O)CN [Example 263, 3-chloro-4-{4-[5-(3-{[glycyl(methyl)amino)methyl}phenyl)pyrimidin-2-yl]piperazin-1-yl}benzoic acid dihydrochloride] | 97% | 95% | 80% | 75%
21 nM | 31 nM | CN(Cc1cccc(-c2cnc(N3CCN(c4ncc(/C=C/C(=O)O)cc4Cl)CC3)nc2)c1)C(=O)CN [Example 33] | 84% | 87% | 97% | 83%
21 nM | 48 nM | CN(Cc1cccc(-c2cnc(N3CCC(N4CCOCC4)CC3)nc2)c1)C(=O)CN [Example 51] | 30% | 37% | 43% | 32%
